From PubChem BioAssay AID330 (DTP/NCI, 2004)
Where “and” joins values, the source holds several entries; their conditions need not be identical. Equal entries are not always repeated. Toxic doses and inconclusive results are not listed. The calls were made as follows: active = survival T/C of 150% or more; inactive = T/C below 125% in these data.

System: P388 leukemia ip, CD2F1 mice, survival T/C
Assay: NCI In Vivo Anticancer Drug Screen. Data for tumor model P388 Leukemia (intraperitoneal) in CD2F1 (CDF1) mice
Settings: endpoint: median survival time, higher = longer survival
Outline: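 Mice carrying the transplanted tumor received test compound or vehicle. Survival was recorded in each group, and the value is the treated-group measurement divided by that of the vehicle-treated control group.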

[1] = dose: 25.0 mg/kg/injection, schedule: Q01DX005 (ip), vehicle: Klucel (hydroxypropylcellulose) (HPC)
[2] = dose: 50.0 mg/kg/injection, schedule: Q01DX005 (ip), vehicle: Klucel (hydroxypropylcellulose) (HPC)
[3] = dose: 100.0 mg/kg/injection, schedule: Q01DX005 (ip), vehicle: Klucel (hydroxypropylcellulose) (HPC)
[4] = dose: 60.0 mg/kg/injection, schedule: Q01DX005 (ip), vehicle: saline with Tween-80
[5] = dose: 120.0 mg/kg/injection, schedule: Q01DX005 (ip), vehicle: saline with Tween-80
[6] = dose: 200.0 mg/kg/injection, schedule: Q01DX005 (ip), vehicle: Klucel (hydroxypropylcellulose) (HPC)
[7] = dose: 25.0 mg/kg/injection, schedule: Q01DX005 (ip), vehicle: saline with Tween-80
[8] = dose: 50.0 mg/kg/injection, schedule: Q01DX005 (ip), vehicle: saline with Tween-80
[9] = dose: 100.0 mg/kg/injection, schedule: Q01DX005 (ip), vehicle: saline with Tween-80
[10] = dose: 50.0 mg/kg/injection, schedule: Q01DX009 (ip), vehicle: saline with Tween-80
[11] = dose: 100.0 mg/kg/injection, schedule: Q01DX009 (ip), vehicle: saline with Tween-80
[12] = dose: 1.56 mg/kg/injection, schedule: Q01DX009 (ip), vehicle: saline
[13] = dose: 3.12 mg/kg/injection, schedule: Q01DX009 (ip), vehicle: saline
[14] = dose: 6.25 mg/kg/injection, schedule: Q01DX009 (ip), vehicle: saline
[15] = dose: 200.0 mg/kg/injection, schedule: Q01DX009 (ip), vehicle: saline with Tween-80
[16] = dose: 50.0 mg/kg/injection, schedule: Q01DX009 (ip), vehicle: saline
[17] = dose: 200.0 mg/kg/injection, schedule: Q01DX005 (ip), vehicle: saline with Tween-80

Measured: T/C

CC(O)(c1ccccc1)C1C(c2ccccc2)N1Cc1ccccc1 (stereo not given)
inactive: dose: 50.0 mg/kg/injection, schedule: Q04DX003 (ip), vehicle: saline sonified 100 % of control | dose: 100.0 mg/kg/injection, schedule: Q04DX003 (ip), vehicle: saline sonified 91 % of control

CCOC(=O)C1=C(C(=O)C(C)(C)C)C(c2ccc([N+](=O)[O-])cc2)C(C(=O)C(C)(C)C)=C(C(=O)OCC)N1
inactive: dose: 60.0 mg/kg/injection, schedule: Q01DX005 (ip), vehicle: Klucel (hydroxypropylcellulose) (HPC) 103 % of control | dose: 120.0 mg/kg/injection, schedule: Q01DX005 (ip), vehicle: Klucel (hydroxypropylcellulose) (HPC) 94 % of control | dose: 240.0 mg/kg/injection, schedule: Q01DX005 (ip), vehicle: Klucel (hydroxypropylcellulose) (HPC) 103 % of control

FC(F)(F)C1(C(F)(F)F)OS2(F)(F)(OC(C(F)(F)F)(C(F)(F)F)c3ccccc32)c2ccccc21
inactive: [1] 92 % of control | [2] 95 % of control | [3] 94 % of control

O=C(/N=C1\N=Nc2nc(C(C(=O)c3cccc([N+](=O)[O-])c3Cl)c3nc4n(c3O)/C(=N/C(=O)Nc3ccc(Cl)cc3)N=N4)c(O)n21)Nc1ccc(Cl)cc1 (stereo not given)
inactive: [4] 99 % of control | [5] 100 % of control | dose: 240.0 mg/kg/injection, schedule: Q01DX005 (ip), vehicle: saline with Tween-80 97 % of control

c1ccc(-c2nnc3nn4c(-c5ccccc5)cnnc4c3c2-c2ccccc2)cc1
inactive: [2] 93 % of control | [3] 91 % of control | [6] 90 % of control

CCN(CC)CCC(O)c1ccc(Cl)c2ccccc12 (stereo not given)
inactive: dose: 50.0 mg/kg/injection, schedule: Q01DX005 (ip), vehicle: saline 106 % of control | dose: 100.0 mg/kg/injection, schedule: Q01DX005 (ip), vehicle: saline 101 % of control

CC(=O)C1=C(C)O/C(=C/c2ccc(Cl)cc2)C1=O
inactive: [7] 118 % of control | [8] 118 % of control and 120 % of control | [9] 119 % of control and 124 % of control

CCC(C(=O)NNC(=O)c1cc(OC)c(OC)c(OC)c1)c1ccccc1 (stereo not given)
inactive: dose: 12.5 mg/kg/injection, schedule: Q01DX009 (ip), vehicle: saline with Tween-80 105 % of control | dose: 25.0 mg/kg/injection, schedule: Q01DX009 (ip), vehicle: saline with Tween-80 97 % of control | [10] 98 % of control | [11] 98 % of control

O=[N+]([O-])c1ccc(/C=C/[n+]2ccc3ccccc3c2)o1
inactive: [12] 107 % of control | [13] 103 % of control | [14] 108 % of control and 91 % of control

NS(=O)(=O)c1ccc(C(=O)O)cc1
inactive: dose: 25.0 mg/kg/injection, schedule: Q04DX003 (ip), vehicle: saline with Tween-80 101 % of control | dose: 50.0 mg/kg/injection, schedule: Q04DX003 (ip), vehicle: saline with Tween-80 94 % of control | dose: 100.0 mg/kg/injection, schedule: Q04DX003 (ip), vehicle: saline with Tween-80 100 % of control | dose: 200.0 mg/kg/injection, schedule: Q04DX003 (ip), vehicle: saline with Tween-80 103 % of control

O=C(OC(C(F)(F)F)C(F)(F)F)c1ccccc1
inactive: dose: 100.0 mg/kg/injection, schedule: Q04DX003 (ip), vehicle: Klucel (hydroxypropylcellulose) (HPC) 105 % of control | dose: 200.0 mg/kg/injection, schedule: Q04DX003 (ip), vehicle: Klucel (hydroxypropylcellulose) (HPC) 101 % of control | dose: 400.0 mg/kg/injection, schedule: Q04DX003 (ip), vehicle: Klucel (hydroxypropylcellulose) (HPC) 109 % of control

CN1C(=O)C2C(C(=O)O)C2N(C)C1=O (stereo not given)
inactive: dose: 10.0 mg/kg/injection, schedule: Q04DX003 (ip), vehicle: saline 99 % of control | dose: 100.0 mg/kg/injection, schedule: Q04DX003 (ip), vehicle: saline 99 % of control | dose: 200.0 mg/kg/injection, schedule: Q04DX003 (ip), vehicle: saline 99 % of control and 101 % of control | dose: 400.0 mg/kg/injection, schedule: Q04DX003 (ip), vehicle: saline 100 % of control and 101 % of control

COc1ncc(Br)cc1C(=O)NCCc1ccc(S(=O)(=O)NC(=O)NC2CCCCC2)cc1
inactive: [10] 99 % of control | [11] 92 % of control

CN(C(=O)OCc1ccccc1)c1ccc(C(=O)NC(CCC(=O)OCc2ccccc2)C(=O)OCc2ccccc2)cc1 (stereo not given)
inactive: [15] 94 % of control

COc1ccc(OC)c2c(Cl)cc(N(C)C)nc12
inactive: [4] 99 % of control | [5] 97 % of control

S=c1[nH]c2ccccc2[nH]1
inactive: [14] 98 % of control | dose: 12.5 mg/kg/injection, schedule: Q01DX009 (ip), vehicle: saline 102 % of control | [16] 98 % of control

COC(=O)C(C)C(O)C(C)N (stereo not given)
inactive: dose: 12.5 mg/kg/injection, schedule: Q01DX009 (ip), vehicle: water 107 % of control | dose: 25.0 mg/kg/injection, schedule: Q01DX009 (ip), vehicle: water 118 % of control | dose: 50.0 mg/kg/injection, schedule: Q01DX009 (ip), vehicle: water 106 % of control | dose: 100.0 mg/kg/injection, schedule: Q01DX009 (ip), vehicle: water 98 % of control | dose: 200.0 mg/kg/injection, schedule: Q01DX009 (ip), vehicle: water 100 % of control

O=C1c2ccccc2Cc2c(NCc3ccccc3)ncnc2N1Cc1ccccc1
inactive: [10] 104 % of control | [11] 101 % of control | [15] 90 % of control

CC(=O)OC(OC(C)=O)c1ccc([N+](=O)[O-])s1
inactive: dose: 50.0 mg/kg/injection, schedule: Q01DX009 (ip), vehicle: Klucel (hydroxypropylcellulose) (HPC) 109 % of control | dose: 100.0 mg/kg/injection, schedule: Q01DX009 (ip), vehicle: Klucel (hydroxypropylcellulose) (HPC) 87 % of control

CNc1c2ccccc2nc2ccccc12
inactive: dose: 12.5 mg/kg/injection, schedule: Q04DX002 (ip), vehicle: distilled water + Tween-80 98 % of control | dose: 25.0 mg/kg/injection, schedule: Q04DX002 (ip), vehicle: distilled water + Tween-80 100 % of control

CCOC(=O)/C(C#N)=C/N1CCCC1
inactive: dose: 6.25 mg/kg/injection, schedule: Q01DX005 (ip), vehicle: saline with Tween-80 107 % of control | dose: 12.5 mg/kg/injection, schedule: Q01DX005 (ip), vehicle: saline with Tween-80 96 % of control | [7] 104 % of control

N#Cc1c(NC(=O)CCC(=O)O)ccc2ccccc12
inactive: [16] 99 % of control | dose: 100.0 mg/kg/injection, schedule: Q01DX009 (ip), vehicle: saline 114 % of control | dose: 200.0 mg/kg/injection, schedule: Q01DX009 (ip), vehicle: saline 114 % of control

COc1ccc(C2CC(C)(N3CCCC3)Oc3cc4c(cc32)OCO4)c(OC)c1 (stereo not given)
inactive: [8] 99 % of control | [9] 96 % of control | [17] 86 % of control

CCOC(=O)/C(C#N)=C\c1ccc(OCc2ccccc2)c(OCc2ccccc2)c1
inactive: dose: 12.5 mg/kg/injection, schedule: Q01DX005 (ip), vehicle: distilled water + alcohol 93 % of control | dose: 25.0 mg/kg/injection, schedule: Q01DX005 (ip), vehicle: distilled water + alcohol 87 % of control | dose: 50.0 mg/kg/injection, schedule: Q01DX005 (ip), vehicle: distilled water + alcohol 88 % of control | [3] 89 % of control | [6] 91 % of control

CCOC(=O)C(=O)C(C(=O)c1ccccn1)c1nc2n(c1O)C(=N)N=N2 (stereo not given)
inactive: [8] 102 % of control | [9] 94 % of control | [17] 87 % of control

O=S(=O)(OCCCl)c1cc(Cl)c(Cl)cc1Cl
inactive: [2] 105 % of control | [3] 114 % of control | [6] 90 % of control

CC(C)N(C(C)C)P1(=NC(C)(C)C)N(C(C)(C)C)P(=NC(C)(C)C)(N(C(C)C)C(C)C)N1C(C)(C)C (stereo not given)
inactive: dose: 12.5 mg/kg/injection, schedule: Q01DX005 (ip), vehicle: Klucel (hydroxypropylcellulose) (HPC) 107 % of control | [1] 104 % of control | [2] 100 % of control and 102 % of control | [3] 102 % of control

O=S(=O)(F)c1ccc(C[P+](c2ccccc2)(c2ccccc2)c2ccccc2)cc1Cl
inactive: dose: 15.0 mg/kg/injection, schedule: Q01DX005 (ip), vehicle: saline with Tween-80 111 % of control | dose: 30.0 mg/kg/injection, schedule: Q01DX005 (ip), vehicle: saline with Tween-80 106 % of control | [4] 110 % of control and 86 % of control

CCN(CC)CC(C)C1NS(=O)(=O)c2ccccc21 (stereo not given)
inactive: [12] 107 % of control | [13] 98 % of control | [14] 100 % of control | dose: 25.0 mg/kg/injection, schedule: Q01DX009 (ip), vehicle: saline 88 % of control | [10] 86 % of control | [16] 87 % of control
